Key:
[1] = tested on: AKT Ser473 phosphorylation; experiment: Phosphorylated AKT (Ser473) inhibitory activity in cultured cell A2780 (Meso Scale Discovery assay); assay type: cell-based; conditions: A2780 cells, 3 hours treatment; average±standard deviation of three independent runs
Description: (§1) To evaluate the inhibitory activity of the above compounds against AKT activity, AKT Ser 473 phosphorylation and phosphorylation of S6 ribosomal protein (S6RP) (a downstream factor of Akt signal) at Ser240/Ser244, which serve as indices for the activation status of AKT, were measured in extracts of cultured cells which had been treated with the above compounds. For the measurement, assays (manufactured by Meso Scale Discovery) utilizing electrochemiluminescence based on the ELISA principle were used for both AKT Ser473 and S6RP Ser240/Ser244.
(§2) In 10% FBS-containing RPMI1640 medium (Invitrogen), ovarian cancer-derived A2780 cells in the logarithmic growth phase were seeded at 4.5×10^4 cells/150 μL/well into polylysine coated 96-well flat-bottom plates, and cultured for one day in an incubator at 5% CO2, 37° C., and 100% humidity.
(§3) Each compound of the present invention was supplied as a stock solution prepared at a concentration of 10 mM in DMSO. Using this solution, a dilution series was prepared in DMSO solvent at 200-fold of the final concentrations (10, 3, 1, 0.3, 0.1, 0.03, 0.01, 0.003 μM). The day after the cells were seeded, the compound dilution series at a 200-fold concentration was diluted 50-fold in medium for cell culture. To each well of the aforementioned A2780 cell culture plates, 50 μL of the diluted compound dilution series was added. The plates were then placed back in the incubator, and the culture was continued for 3 hours at 5% CO2, 37° C., and 100% humidity.
(§4) Meso Scale Discovery's 96-Well Multi-Spot Phospho-AKT (Ser473) Assay (K151CAA-3) and Phospho (Ser240/244)/Total S6RP Assay (K11139D-2) were used. In advance, a necessary amount of the supplied cell extract buffer was dispensed, and protease inhibitor cocktail and protein phosphatase inhibitor cocktail were added thereto, and kept cold on ice. The culture plates of the cells cultured with the compounds for 3 hours were taken out and the medium was removed. 100 μL of the cell extract buffer kept cold was added per well, followed by extraction by shaking at 300 r.p.m. for 1 hour using a plate shaker while maintaining a temperature of 4° C. Using the obtained extracts at 40 μL/well for the Phospho-AKT (Ser473) Assay and at 15 μL/well for the Phospho(Ser240/244)/Total S6RP Assay, reactions were conducted at 4° C. overnight with shaking at 300 r.p.m. according to the document attached to the kits. The next day, after the wells were washed three times with the supplied wash buffer, 50 μL/well of SULFO-TAG™ sandwich antibody solution was added, and reactions were carried out at room temperature for 1 hour. The wells were washed with the wash buffer three times, and 150 μL of the supplied Read Buffer T was added to each well. The amounts of phosphorylation of AKT and S6RP were measured by a SECTOR Imager 6000 plate reader (manufactured by Meso Scale Discovery) within 30 minutes of the Read Buffer T addition.
(§5) The extraction buffer-only background was subtracted from all of the measurement values, and AKT and S6RP phosphorylation signals in the control cell extract treated with only DMSO were defined as 100%. The compound concentrations and the levels of phosphorylated AKT and S6PR (expressed as a percentage relative to the control) in each concentration were plotted, and IC50 concentration (nM) that achieves 50% inhibition of the control was determined.

[2] = target: human AKT1 (Homo sapiens (Human), UniProt P31749); experiment: AKT1 kinase activity inhibition (TR-FRET, biotinylated Crosstide substrate); assay type: biochemical; conditions: preincubation 120 min at 25° C.; ATP 150 μM; Crosstide 500 nM
human AKT1, sequence (P31749 whole entry): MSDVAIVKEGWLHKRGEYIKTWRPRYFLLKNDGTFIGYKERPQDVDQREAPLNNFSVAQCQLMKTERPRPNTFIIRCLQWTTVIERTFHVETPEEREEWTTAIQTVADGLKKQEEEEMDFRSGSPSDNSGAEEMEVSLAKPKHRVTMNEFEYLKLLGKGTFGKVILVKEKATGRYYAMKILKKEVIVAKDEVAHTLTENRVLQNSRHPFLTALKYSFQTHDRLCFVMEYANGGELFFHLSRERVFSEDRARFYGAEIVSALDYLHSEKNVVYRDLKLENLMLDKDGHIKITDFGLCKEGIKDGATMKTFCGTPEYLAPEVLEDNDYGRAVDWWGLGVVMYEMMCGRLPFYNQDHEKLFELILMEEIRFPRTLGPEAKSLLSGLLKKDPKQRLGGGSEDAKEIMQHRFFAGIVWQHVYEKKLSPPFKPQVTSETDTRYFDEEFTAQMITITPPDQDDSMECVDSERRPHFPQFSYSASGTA
Description: (§6) Preparation of AKT1 and AKT2 and measurement of in vitro inhibitory activity of the above-mentioned compounds against AKT1 and AKT2 kinase activity were carried out with reference to the method disclosed in Biochem. J. Vol. 385, pp 399-408 (2005). In the preparation of AKT1 and AKT2, human AKT1 and AKT2 to which a middle T antigen tag was added were expressed in Sf 9 insect cells, and then AKT1 and AKT2 were prepared following affinity purification and activation by PDK1. The prepared AKT1 and AKT2 were stored at −80° C. until the time of measurement of inhibitory activity of the compounds. In the measurement of inhibitory activity of the compounds, AKT1 or AKT2 and each compound of the present invention were preincubated at 25° C. for 120 minutes in a buffer solution for reaction (15 mM Tris-HCl pH 7.5, 0.01% Tween-20, 2 mM DTT). As a substrate, biotinylated Crosstide (bioton-KGSGSGRPRTSSFAEG), MgCl2, and ATP were added to final concentrations of 500 nM, 10 mM, and 150 μM, respectively, and reactions were carried out at 25° C. for 60 minutes. The reactions were stopped by adding EDTA to a final concentration of 80 mM. Then, a detection liquid in which an Eu-labeled anti-phosphorylation Crosstide antibody (PerkinElmer) and SureLight APC-SA (PerkinElmer) were contained at a final concentration of 0.5 nM and […], respectively, was added, and reactions were carried out at room temperature for 2 hours. Finally, the amount of fluorescence at the time of irradiation of excitation light having a wavelength of 337 nm was measured at dual wavelengths of 620 nm and 665 nm by PHERAstar FS (BMG LABTECH). The amount of phosphorylation was determined from the ratio of the fluorescence amounts at the dual wavelengths. The compound concentration at which phosphorylation can be inhibited by 50% was defined as […] (nM), and the results are shown in Table 4 below.

[3] = target: human AKT2 (Homo sapiens (Human), UniProt P31751); experiment: AKT2 kinase activity inhibition (TR-FRET, biotinylated Crosstide substrate); assay type: biochemical; conditions: preincubation 120 min at 25° C.; ATP 150 μM; Crosstide 500 nM
human AKT2, sequence (P31751 whole entry): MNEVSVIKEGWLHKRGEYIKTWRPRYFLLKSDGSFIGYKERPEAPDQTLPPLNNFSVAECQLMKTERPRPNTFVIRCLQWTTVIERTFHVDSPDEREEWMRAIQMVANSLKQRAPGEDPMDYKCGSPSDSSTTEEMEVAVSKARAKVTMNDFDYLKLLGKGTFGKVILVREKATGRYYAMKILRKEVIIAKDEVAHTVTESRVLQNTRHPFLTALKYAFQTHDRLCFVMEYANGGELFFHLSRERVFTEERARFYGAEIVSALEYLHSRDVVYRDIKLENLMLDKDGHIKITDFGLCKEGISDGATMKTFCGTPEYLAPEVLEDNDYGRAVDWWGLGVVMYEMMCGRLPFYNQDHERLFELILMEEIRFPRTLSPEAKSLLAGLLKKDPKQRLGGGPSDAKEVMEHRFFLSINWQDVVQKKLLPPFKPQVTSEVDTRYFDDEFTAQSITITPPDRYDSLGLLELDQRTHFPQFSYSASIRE
Description: as §6

[4] = tested on: S6 ribosomal protein (S6RP) Ser240/Ser244 phosphorylation; experiment: Phosphorylated S6RP (Ser240/Ser244) inhibitory activity in cultured cell A2780 (Meso Scale Discovery assay); assay type: cell-based; conditions: A2780 cells, 3 hours treatment; average±standard deviation of three independent runs
Description: as §1, §2, §3, §4, §5

SMILES	IC50 [1]	IC50 [2]	IC50 [3]	IC50 [4]
N[C@]1(c2ccc(-c3nc4n(c3-c3ccncc3)COc3cccc(F)c3-4)cc2)C[C@](O)(C2CC2)C1 [Example 5, trans-3-amino-1-cyclopropyl-3-(4-(10-fluoro-3-(pyridin-4-yl)-5H-benzo[e]imidazo[1,2-c][1,3]oxazin-2-yl)phenyl)cyclobutanol]	85 ± 24 nM	22 nM	0.91 nM	232 ± 53 nM
N[C@]1(c2ccc(-c3nc4n(c3-c3ccccc3)COc3ccccc3-4)cc2)C[C@](O)(C2CC2)C1 [Example 11, trans-3-amino-1-cyclopropyl-3-(4-(3-phenyl-5H-benzo[e]imidazo[1,2-c][1,3]oxazin-2-yl)phenyl)cyclobutanol]	63 ± 15 nM	3.9 nM	1 nM	83 ± 27 nM
COc1cccc2c1-c1nc(-c3ccc([C@]4(N)C[C@@](O)(C5CC5)C4)cc3)c(-c3ccccc3)n1CO2 [Example 16, trans-3-amino-1-cyclopropyl-3-(4-(10-methoxy-3-phenyl-5H-benzo[e]imidazo[1,2-c][1,3]oxazin-2-yl)phenyl)cyclobutanol]	31 ± 5 nM	4.8 nM	0.35 nM	38 ± 7 nM
COc1ccc2c(c1)-c1nc(-c3ccc([C@]4(N)C[C@@](O)(C5CC5)C4)cc3)c(-c3ccccc3)n1CO2 [Example 17, trans-3-amino-1-cyclopropyl-3-(4-(9-methoxy-3-phenyl-5H-benzo[e]imidazo[1,2-c][1,3]oxazin-2-yl)phenyl)cyclobutanol]	33 ± 6 nM	1.8 nM	5.1 nM	37 ± 7 nM
COc1ccc2c(c1)OCn1c-2nc(-c2ccc([C@]3(N)C[C@@](O)(C4CC4)C3)cc2)c1-c1ccccc1 [Example 18, trans-3-amino-1-cyclopropyl-3-(4-(8-methoxy-3-phenyl-5H-benzo[e]imidazo[1,2-c][1,3]oxazin-2-yl)phenyl)cyclobutanol]	52 ± 6 nM	3.7 nM	0.6 nM	58 ± 10 nM
N[C@]1(c2ccc(-c3nc4n(c3-c3ccccc3)COc3cccnc3-4)cc2)C[C@](O)(C2CC2)C1 [Example 27, trans-3-amino-1-cyclopropyl-3-(4-(3-phenyl-5H-imidazo[1,2-c]pyrido[2,3-e][1,3]oxazin-2-yl)phenyl)cyclobutanol]	66 ± 10 nM	11 nM	1.6 nM	100 ± 17 nM
C[C@]1(O)C[C@@](N)(c2ccc(-c3nc4n(c3-c3ccccc3)COc3cccnc3-4)cc2)C1 [Example 28, trans-3-amino-1-methyl-3-(4-(3-phenyl-5H-imidazo[1,2-c]pyrido[2,3-e][1,3]oxazin-2-yl)phenyl)cyclobutanol]	81 ± 9 nM	11 nM	2 nM	131 ± 28 nM
CC[C@]1(O)C[C@@](N)(c2ccc(-c3nc4n(c3-c3ccccc3)COc3cccnc3-4)cc2)C1 [Example 30, trans-3-amino-1-ethyl-3-(4-(3-phenyl-5H-imidazo[1,2-c]pyrido[2,3-e][1,3]oxazin-2-yl)phenyl)cyclobutanol]	104 ± 27 nM	33 nM	4.6 nM	174 ± 47 nM
N[C@]1(c2ccc(-c3nc4n(c3-c3ccccc3)COc3ccncc3-4)cc2)C[C@](O)(C2CC2)C1 [Example 31, trans-3-amino-1-cyclopropyl-3-(4-(3-phenyl-5H-imidazo[1,2-c]pyrido[3,4-e][1,3]oxazin-2-yl)phenyl)cyclobutanol]	30 ± 5 nM	4.2 nM	0.78 nM	51 ± 7 nM
CC1(O)CC(N)(c2ccc(-c3nc4n(c3-c3ccccc3)COc3ccncc3-4)cc2)C1 (stereo not drawn) [Example 32, trans-3-amino-1-methyl-3-(4-(3-phenyl-5H-imidazo[1,2-c]pyrido[3,4-e][1,3]oxazin-2-yl)phenyl)cyclobutanol]	40 ± 3 nM	6.6 nM	1.1 nM	62 ± 23 nM

Source: US8772283B2, “Imidazo-oxazine compound or salt thereof” (Taiho Pharmaceutical Co., Ltd., priority 2011, dated 2014)
